The nature of series [1]: Stability test of crystal: accelerated test. Type of series: physicochemical. The settings on record: 40° C. ± 2° C., relative humidity of 75% ± 5%. Here is the method:
(§1) The XRPD was measured using a PHASER BRUKER D2 X-ray powder diffractometer with a wavelength of 1.54060 Å. The melting point was measured using an YRT-3 melting point apparatus (manufactured by Tianjin University). The content was determined by HPLC with reference to Chinese Pharmacopoeia, 2010 edition, Part II, Appendix V D, using octadecylsilane bonded silica gel as a filler, and ammonium formate buffer solution and acetonitrile as a mobile phase; detection wavelength of 260 nm and column temperature of 40° C. The moisture content was determined using a METTLER TOLEDO DL31 Karl Fischer moisture analyzer.
(§2) The conditions and methods for the stability test of crystal were performed according to the requirements of the Chinese Pharmacopoeia (2010 edition), Part II, Appendix XIX C, Guidelines for Stability Tests of Active Pharmaceutical Ingredients and Pharmaceutical Preparations. The crystalline Form A prepared in Example 1 was used as a test sample. A medicinal low-density polyethylene bag was used as an inner package for a sample, and polyester/aluminum/polyethylene composite bag for pharmaceutical packaging was used as an outer packaging material for a sample.

The nature of series [2]: Stability test of crystal: long-term test. Type of series: physicochemical. The note with it: 25° C. ± 2° C., relative humidity of 60% ± 10%. Here is the method: as §1, §2

Experimental findings from patent US10858340B2, “Crystal of salt of quinazoline derivative” (CHIA TAI TIANQING PHARMACEUTICAL GROUP CO., LTD., priority 2016, dated 2020) are described below.

Each structure is given as a SMILES string.

With `C=CC(=O)N1CCC(Nc2cc3c(Nc4ccc(F)c(Cl)c4)ncnc3cc2OC)CC1`, the “Content of the crystalline Form A of the maleate of the compound of Formula (I) (HPLC)” value came out at 99.4% in series [1] (0 month); 99.3% in series [1] (1 month); 99.2% in series [1] (2 months); 99.2% in series [1] (3 months); 99.3% in series [1] (6 months); 99.4% in series [2] (0 month). In addition, the “Content of the crystalline Form A of the maleate of the compound of Formula (I) (HPLC)” value in series [2] (3 months) turned out to be 99.3%; in series [2] (6 months), 99.4%; in series [2] (9 months), 99.2%; in series [2] (12 months), 99.4%; in series [2] (18 months) it was 99.2%. Besides, the Moisture is reported as 0.17% in series [1] (0 month); 0.19% in series [1] (1 month); 0.18% in series [1] (2 months); 0.19% in series [1] (3 months); 0.20% in series [1] (6 months); 0.17% in series [2] (0 month). For the same compound, the Moisture is 0.19% in series [2] (3 months); 0.20% in series [2] (6 months); 0.21% in series [2] (9 months); 0.22% in series [2] (12 months); 0.24% in series [2] (18 months).
